Measurements: the supplement of paper PMC10307832

Experiments:
Assay in all cases: relative viability (nuclei count vs DMSO), 5 days (fraction); higher = more cells survive
JZL-184 + Trametinib = compound: C1CN(CCC1C(C2=CC3=C(C=C2)OCO3)(C4=CC5=C(C=C4)OCO5)O)C(=O)OC6=CC=C(C=C6)[N+](=O)[O-] [JZL-184] + CC(=O)Nc1cccc(-n2c(=O)n(C3CC3)c(=O)c3c(Nc4ccc(I)cc4F)n(C)c(=O)c(C)c32)c1 [Trametinib] (partner 0.02 µM)
Outline: (§1)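 Each reported value is a median over duplicate plates. It expresses relative viability: treated-well nuclei count divided by vehicle-well nuclei count. Lung cancer cell lines in 1536-well plates were dosed by pin tool a day after seeding, alone with one drug or with a fixed anchor-drug dose plus five library-drug doses (not always all listed) in √10 steps, and nuclei were counted after 5 days.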

JZL-184 + Lapatinib = compound: C1CN(CCC1C(C2=CC3=C(C=C2)OCO3)(C4=CC5=C(C=C4)OCO5)O)C(=O)OC6=CC=C(C=C6)[N+](=O)[O-] [JZL-184] + CS(=O)(=O)CCNCc1ccc(-c2ccc3ncnc(Nc4ccc(OCc5cccc(F)c5)c(Cl)c4)c3c2)o1 [Lapatinib] (partner 2 µM)
Outline: as §1

JZL-184 + AZD7762 = compound: C1CN(CCC1C(C2=CC3=C(C=C2)OCO3)(C4=CC5=C(C=C4)OCO5)O)C(=O)OC6=CC=C(C=C6)[N+](=O)[O-] [JZL-184] + NC(=O)Nc1cc(-c2cccc(F)c2)sc1C(=O)N[C@H]1CCCNC1 [AZD7762] (partner 0.2 µM)
Outline: as §1

JZL-184 + Vorinostat = compound: C1CN(CCC1C(C2=CC3=C(C=C2)OCO3)(C4=CC5=C(C=C4)OCO5)O)C(=O)OC6=CC=C(C=C6)[N+](=O)[O-] [JZL-184] + O=C(CCCCCCC(=O)Nc1ccccc1)NO [Vorinostat] (partner 1 µM)
Outline: as §1

JZL-184 = compound: C1CN(CCC1C(C2=CC3=C(C=C2)OCO3)(C4=CC5=C(C=C4)OCO5)O)C(=O)OC6=CC=C(C=C6)[N+](=O)[O-] [JZL-184]
Outline: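 Viability was read as treated-well nuclei divided by vehicle-well nuclei, using the median across plates. Lung cancer cell lines in 1536-well plates were kept overnight at 37 °C, pinned with five √10-spaced library-drug doses, and after 5 days were Hoechst-stained, imaged at 4× and counted in MetaXpress. Plates passed only with control CV below 25% and at least one doubling.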

| Cell Line | relative viability (JZL-184 + Trametinib; first compound 0.04 µM) | relative viability (JZL-184 + Trametinib; first compound 0.4 µM) | relative viability (JZL-184 + Trametinib; first compound 1.265 µM) | relative viability (JZL-184 + Trametinib; first compound 4 µM) | relative viability (JZL-184 + Lapatinib; first compound 0.04 µM) | relative viability (JZL-184 + Lapatinib; first compound 0.4 µM) | relative viability (JZL-184 + Lapatinib; first compound 1.265 µM) | relative viability (JZL-184 + Lapatinib; first compound 4 µM) | relative viability (JZL-184 + AZD7762; first compound 0.04 µM) | relative viability (JZL-184 + AZD7762; first compound 0.4 µM) | relative viability (JZL-184 + AZD7762; first compound 1.265 µM) | relative viability (JZL-184 + AZD7762; first compound 4 µM) | relative viability (JZL-184 + Vorinostat; first compound 0.04 µM) | relative viability (JZL-184 + Vorinostat; first compound 0.4 µM) | relative viability (JZL-184 + Vorinostat; first compound 1.265 µM) | relative viability (JZL-184 + Vorinostat; first compound 4 µM) | relative viability (JZL-184; 0.04 µM) | relative viability (JZL-184; 0.4 µM) | relative viability (JZL-184; 1.265 µM) | relative viability (JZL-184; 4 µM) |
| --- | --- | --- | --- | --- | --- | --- | --- | --- | --- | --- | --- | --- | --- | --- | --- | --- | --- | --- | --- | --- |
| EKVX | 0.322 | 0.348 | 0.364 | 0.359 | 0.193 | 0.221 | 0.194 | 0.2 | 0.732 | 0.688 | 0.793 | 0.645 | 0.676 | 0.666 | 0.719 | 0.58 | 1.02 | 0.979 | 1.04 | 0.927 |
| HARA | 0.678 | – | 0.652 | 0.696 | 0.839 | 0.773 | 0.807 | 0.751 | 0.126 | – | 0.43 | 0.379 | 0.608 | 0.557 | 0.681 | 0.395 | 0.995 | 0.814 | 1.05 | 0.831 |
| EMC-BAC-2 | 0.955 | 0.899 | 0.832 | 0.827 | 0.96 | 0.869 | 0.971 | 0.83 | 1.16 | 1.11 | 1.14 | 1.08 | 0.522 | 0.451 | 0.761 | 0.371 | 1.05 | 0.944 | 1.12 | 0.922 |
| PC-14 | 1.1 | 0.693 | 0.738 | 0.635 | 0.39 | 0.316 | 0.325 | 0.327 | 0.391 | 0.337 | 0.387 | 0.321 | 0.848 | 0.722 | 0.758 | 0.661 | 1.24 | 0.974 | 1.07 | 0.936 |
| NCI-H1755 | 0.748 | 0.747 | 0.802 | 0.77 | 1.02 | 1.01 | 1.07 | 0.962 | 0.397 | 0.379 | 0.456 | 0.433 | 0.704 | 0.634 | 0.798 | 0.638 | 1.04 | 0.988 | 0.985 | 0.956 |
| NCI-H2087 | 0.181 | 0.173 | 0.182 | 0.188 | 1.29 | 0.824 | 0.99 | 1.18 | 1.33 | 1.2 | 1.26 | 1.34 | 0.969 | 0.742 | 0.807 | 1 | 1.15 | 0.99 | 1.04 | 1.11 |
| CAL-12T | 0.341 | 0.356 | 0.352 | 0.341 | 0.701 | 0.529 | 0.789 | 0.593 | 0.712 | 0.531 | 0.7 | 0.613 | 0.86 | 0.805 | 0.88 | 0.717 | 1.23 | 0.856 | 1.13 | 0.949 |
| NCI-H2085 | – | 0.515 | 0.527 | 0.603 | – | 0.657 | 0.764 | 0.753 | – | 0.886 | 1.02 | 1.01 | – | 0.805 | 0.832 | 0.709 | 0.719 | 0.989 | 1.07 | 0.98 |
| NCI-H650 | 1.06 | 0.871 | 0.963 | 0.995 | 0.916 | 0.793 | 1.07 | 0.894 | 0.997 | 1.1 | 1.07 | 0.988 | 0.518 | 0.369 | 0.422 | 0.414 | 1.03 | 0.762 | 1.1 | 0.979 |
| LCLC-97TM1 | 0.215 | 0.182 | 0.222 | 0.206 | 1.08 | – | 1.01 | 0.858 | 0.281 | 0.134 | 0.244 | 0.303 | 1.03 | 0.644 | 0.619 | 0.749 | 1.13 | 0.852 | 1.05 | 0.84 |
| NCI-H2126 | 0.506 | 0.603 | 0.602 | 0.503 | 0.755 | 0.779 | 0.768 | 0.764 | 1.06 | 1.01 | 1.02 | 0.996 | 0.753 | 0.698 | 0.76 | 0.737 | 0.996 | 0.974 | 1.03 | 0.988 |
| 201T | 0.676 | 0.724 | 0.706 | 0.688 | 1.09 | 1.06 | 0.981 | 1.02 | 0.711 | 0.57 | 0.586 | 0.611 | 0.995 | 0.983 | 1.01 | 0.902 | 0.997 | 0.992 | 1.01 | 0.953 |
| NCI-H1915 | 0.301 | 0.293 | 0.328 | 0.297 | 1.15 | 0.973 | 0.998 | 0.935 | 0.76 | 0.58 | 0.726 | 0.697 | 0.481 | 0.493 | 0.48 | 0.537 | 1.09 | 0.956 | 1.1 | 0.976 |
| BEN | 0.967 | 1.06 | 1.07 | 1.04 | 0.865 | 0.671 | 0.939 | 0.819 | 0.731 | 0.666 | 0.752 | 0.792 | 0.538 | 0.524 | 0.538 | 0.594 | 1.1 | 0.949 | 1.21 | 1.01 |
| NCI-H2347 | – | 0.313 | 0.275 | 0.283 | 1.1 | 0.884 | 0.953 | 0.815 | – | 0.758 | 0.82 | 0.703 | – | 0.494 | 0.661 | 0.616 | 0.865 | 0.996 | 1.06 | 0.989 |
